Experimental findings from publication PMC8921294, “Inhibition of mitochondrial LonP1 protease by allosteric blockade of ATP binding and hydrolysis via CDDO and its derivatives” (The Journal of Biological Chemistry, 2022) are described below.

For orientation: IC50 means the concentration that inhibits the measured activity by half. Broadly, the Ki is a measure of affinity in units of concentration, obtained from inhibition or displacement. The low end stands for tighter binding, the high end for weaker binding.

The target of assay [1] is T1, Human mitochondrial LonP1 (wild-type) ATPase (Homo sapiens, UniProt P36776).
T1 construct: hexa-histidine (N); made in house; host or cells: Rosetta 2 E. coli
T1 sequence (P36776 68-959): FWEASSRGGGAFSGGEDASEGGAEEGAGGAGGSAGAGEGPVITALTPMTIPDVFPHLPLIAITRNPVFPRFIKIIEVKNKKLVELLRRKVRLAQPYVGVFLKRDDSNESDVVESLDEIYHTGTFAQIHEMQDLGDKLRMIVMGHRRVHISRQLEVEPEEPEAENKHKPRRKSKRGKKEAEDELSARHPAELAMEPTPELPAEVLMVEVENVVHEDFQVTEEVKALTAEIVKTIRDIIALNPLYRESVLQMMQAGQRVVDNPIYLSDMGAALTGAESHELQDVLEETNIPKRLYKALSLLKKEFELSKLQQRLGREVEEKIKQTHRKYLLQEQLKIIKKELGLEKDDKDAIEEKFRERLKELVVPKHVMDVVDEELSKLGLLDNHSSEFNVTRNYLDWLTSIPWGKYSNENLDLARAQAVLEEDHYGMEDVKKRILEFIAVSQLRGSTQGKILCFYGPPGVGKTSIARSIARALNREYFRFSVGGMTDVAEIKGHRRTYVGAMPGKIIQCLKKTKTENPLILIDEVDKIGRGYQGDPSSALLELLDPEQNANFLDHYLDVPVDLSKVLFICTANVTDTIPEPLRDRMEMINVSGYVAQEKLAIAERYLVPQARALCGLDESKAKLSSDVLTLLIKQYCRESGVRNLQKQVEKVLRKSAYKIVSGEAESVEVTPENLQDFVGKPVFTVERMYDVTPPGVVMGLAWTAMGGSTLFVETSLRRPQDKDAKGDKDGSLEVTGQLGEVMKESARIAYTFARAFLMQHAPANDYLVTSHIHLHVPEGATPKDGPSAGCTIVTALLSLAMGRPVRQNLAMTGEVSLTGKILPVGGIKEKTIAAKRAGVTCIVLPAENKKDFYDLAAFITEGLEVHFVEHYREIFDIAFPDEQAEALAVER
The assay is described as follows: Endpoint ATPase assay (ADP-Glo), wild-type LonP1. It counts as biochemical. Particulars: end-point ATPase assay, 1 mM ATP, 60 min preincubation 25 °C; Table 1. Here is the method: ADP-Glo (Promega) assays were performed according to the manufacturer's protocols. Purified wild-type or mutant LonP1 (400 nM monomer), the 26S proteasome (3 nM), or no enzyme controls were preincubated in 96-well plates (60 min, 25 °C) with ten different concentrations of CDDO and its derivatives, TP-82, enoxolone (5 μM) or DMSO vehicle control in buffer (40 mM Tris-HCl (pH 7.5), 20 mM MgCl2, 0.1 mg/ml BSA and 5% DMSO). The 26S and 20S proteasome were also assayed at 0, 0.75, 1.5, 3, 6, and 12 nM in the absence of CDDO derivatives. UltraPure ATP (1 mM final) was added, and reactions (50 μl final) were incubated for 60 min at 25 °C, then 5 μl was transferred in quadruplicate to a 384-well plate. Assay reagents were used to quench further ATPase activity and generate luminescence signals proportional to the concentration of ADP formed. Background (no enzyme control) luminescence values were subtracted, and resultant values were reported as a percentage of the no drug control (100%). Data were fit to four-parameter dose–response curves using GraphPad Prism. The error bars represent the standard deviation (SD) of four replicate reactions from at least three independent experiments.
(In general: In ADP-Glo the light output rises with the ADP produced.)

Assay [2] deals with heme oxygenase 1 (HO-1). In words: HO-1 stabilisation in HeLa ρ^0 cells (immunoblot). The following applies: 7 h. Format: cell-based, human. Here is the method: LonP1 knockdown stabilized HO-1 protein, whereas LonP1 overexpression decreased HO-1 protein (Fig. 4, E and F).
HeLa cells devoid of mitochondrial DNA (HeLa ρ^0) and LCL cells were generated as described previously ([50]). DMEM, RPMI, and fetal bovine serum were purchased from Sigma. All cells were grown with 5% CO2 at 37 °C. LCL cells were cultured in RPMI supplemented with 15% FBS. HeLa Rho 0 cells were cultured in high glucose DMEM (25 mM) (Sigma) supplemented with sodium pyruvate ([…]) and uridine ([…]). CDDO-Me was purchased from Cayman chemicals, and CDDO-AH was synthesized as described previously ([20]). HEK293 cells plated in 60 mm dishes at a confluency of 60 to 70% were transfected with Control or 3′UTR LonP1 siRNA using Lipofectamine 2000 (Invitrogen) and reduced serum OPTI MEM (Sigma) as described in the manufacturer’s protocol to knockdown LonP1, whereas adenoviral transduction was employed to overexpress LonP1. CDDO-Me and CDDO-anhydride were dissolved in DMSO and serially diluted in the respective complete medium and added to HeLa ρ^0 cells and were treated for 7 or 24 h.
Cells were harvested, centrifuged, and washed with PBS and proteins were extracted by adding the lysis buffer (50 mM Tris, [pH 7.5], 300 mM NaCl, and 0.5% Triton X-100) containing 2X Halt phosphatase and protease cocktail inhibitor (Thermo Scientific) for 20 min on ice. […]
In general terms: Immunoblotting shows a protein as a band on a membrane.

Assay [3] has as its target T2, Human mitochondrial LonP1 (LonP1^WT) ATPase (Homo sapiens, UniProt P36776).
T2 construct: hexa-histidine (N); made in house; host or cells: Rosetta 2 E. coli
T2 sequence (P36776 68-959): T1 sequence (P36776 68-959)
The assay is described as follows: Continuous NADH-coupled ATPase assay, wild-type LonP1. It counts as biochemical. Particulars: for Modality (mechanism of LonP1 ATPase inhibition) / Ki / αKi / α: continuous ATPase assay; for Modality (mechanism of LonP1 ATPase inhibition): ATP titrated; for Ki: LonP1 400 nM, 30 min preincubation; for αKi: dissociation constant for ES complex; for α: relates αKi to Ki. As to the method:
ATPase reactions (200 μl total) were performed in 96-well plates at room temperature. LonP1 (400 nM monomer) was preincubated with DMSO (1–2%) vehicle control or CDDO derivatives in buffer (50 mM HEPES-KOH pH 7.5, 5 mM magnesium acetate, 75 mM potassium acetate) for 30 to 45 min at room temperature or 30 °C. The reactions were initiated by the addition of phosphoenolpyruvate (PEP, 3 mM), NADH (300 μM), pyruvate kinase and lactate dehydrogenase (PK-LDH) (12–20 U/ml), and ATP concentrations as indicated. The change in NADH absorbance at 340 nm was monitored in Spectramax plate reader for 5 min to obtain reaction velocities. Data were fit to the Michaelis–Menten curve using GraphPad Prism 5, and the error bars represent the standard deviation (SD) of four replicate reactions from at least three independent experiments.

The structures appear in SMILES notation. Values joined by “and” are separate entries in the source; they are usually repeats but may differ in a detail not shown here. Equal values may be shown once. Where only a bound is given, the exact number is not on record here.

Turning to `COC(=O)[C@]12CCC(C)(C)C[C@H]1[C@H]1C(=O)C=C3[C@@]4(C)C=C(C#N)C(=O)C(C)(C)[C@@H]4CC[C@@]3(C)[C@]1(C)CC2` [CDDO-Me], in assay [1], half-maximal inhibition (IC50) was put at 1.9 ± 0.3 µM. Besides, the “Concentration stabilising HO-1” value in assay [2] is at least 0.125 µM. In assay [3], the “Modality (mechanism of LonP1 ATPase inhibition)” value is “noncompetitive”, the Ki is 800 ± 100 nM, the αKi worked out at 3.3 ± 1.0 µM and the α is 4.3.

Regarding `CC1(C)CC[C@]2(C(=O)OC(=O)[C@]34CCC(C)(C)C[C@H]3[C@H]3C(=O)C=C5[C@@]6(C)C=C(C#N)C(=O)C(C)(C)[C@@H]6CC[C@@]5(C)[C@]3(C)CC4)CC[C@]3(C)[C@H](C(=O)C=C4[C@@]5(C)C=C(C#N)C(=O)C(C)(C)[C@@H]5CC[C@]43C)[C@@H]2C1` [CDDO-anhydride], in assay [1], the IC50 came out at 19.4 ± 3.3 µM. Besides, the “Concentration stabilising HO-1” value in assay [2] was at least 0.25 µM. Besides, in assay [3], the “Modality (mechanism of LonP1 ATPase inhibition)” value is given as “competitive” and the Ki was found to be 9500 ± 1400 nM. Also, the “Ki relative to the Ki of other CDDO derivatives” value in assay [3] (fold higher) is listed as about 3.5 fold.

As to `CC1(C)CC[C@]2(C(=O)O)CC[C@]3(C)[C@H](C(=O)C=C4[C@@]5(C)C=C(C#N)C(=O)C(C)(C)[C@@H]5CC[C@]43C)[C@@H]2C1` [CDDO, 2-cyano-3,12-dioxooleana-1,9(11)-dien-28-oic acid], in assay [1], half-maximal inhibition (IC50) required 13 ± 6 µM. Further, in assay [3], the “Modality (mechanism of LonP1 ATPase inhibition)” value was “noncompetitive”; affinity was put at a Ki of 2600 ± 500 nM; the αKi was 14 ± 2 µM and 14.0 ± 2.0 µM; the α is on record as 5.4.
